These results are taken from US3932633A, “Novel o-triazenobenzamides, in treating aggressive behavior” (Uniroyal Inc., priority 1974, dated 1976).

Each structure is given as a SMILES string. Read-outs that look alike come from different tables or passages of the source.

Assay [1] deals with isolation-induced fighting in mice. Nature of the assay: Isolated fighting mouse (IFM) test / isolated mouse aggression. The assay is classed as in vivo. To be noted: Mus musculus, ip; for responders at 30 mg/kg: 30 mg/kg intraperitoneally, at least 40% protected = active; for ED50: i.p. administration, read-out: ED50 (IFM). As to the method: *IFM - Isolated fighting mouse test at a dose of 30 mg/kg
intraperitoneally; those compounds which protected at least 40% of the
Two models of aggression are used in the primary screening for neuroleptics, (1) isolation-induced fighting in mice (IFM), and (2) aggression induced in rats by destruction of the septal area (septal rat). Compounds are first submitted, however, to the neuropharmacological profile, a standard procedure (see, e.g., Samuel Irwin, Science, 136, 123 [1962]) employed in screening a compound to determine its usefulness as a central nervous system active compound. Those agents which cause depression over a wide dose range are then submitted to the first anti-aggression screen, the isolation-induced fighting mouse assay.
The compound of Example 6 was compared with chlorpromazine and chlordiazepoxide for its anti-aggressive activity. Three models of experimentally-induced aggression in rodents were studied (R. D. Sofia, Life Science, 8: 705, 1969).

The test system is the same in assay [2]. The description is as above. The assay is classed as in vivo. The note with it: po, 30 mg/kg, per os, read-out: IFM % protected.
Assay [3] relates to dihydroxyphenylalanine-induced fighting behavior in mice. Nature of the assay: Dihydroxyphenylalanine (DOPA) fighting test. The assay is classed as in vivo, mouse. The note with it: 200 mg/kg d1-DOPA; pargyline 80 mg/kg, Example 6 100 mg/kg, chlorpromazine 5 mg/kg, chlordiazepoxide 15 mg/kg. As to the method:
It is well known that when monoamine oxidase inhibitors are administered prior to the administration of d1-DOPA, which is a noradrenaline precursor, convulsions or excitation occur. In this study, the MAO inhibitor pargyline (80 mg/kg) was given 1, 2 and 4 hours prior to administering 200 mg/kg of d1-DOPA. […] Thus, in this procedure, none of the agents tested appears to be a MAO inhibitor.

For the compound `CNC(=O)c1ccccc1N=NNc1ccc(C)c(Cl)c1` [Example 27], in assay [1], the responders at 30 mg/kg amounted to 80%.

Turning to `NC(=O)c1ccccc1N=NNc1cccnc1` [Example 19], in assay [1], the responders at 30 mg/kg turned out to be 80%.

In assay [1], `NC(=O)c1ccccc1N=NNc1ccc2ncccc2c1` [Example 20] yielded a responders at 30 mg/kg of 40%.

Consider `CNC(=O)c1ccccc1N=NNc1nc(C)c(C(=O)NCc2ccccc2)s1` [Example 29], for which, in assay [1], the responders at 30 mg/kg was 100%.

In assay [1], `NC(=O)c1ccccc1N=NNc1ccccc1C(N)=O` [Example 1, 2,2'-diazoaminobenzamide] returned a responders at 30 mg/kg of 100%.

In turn, `Cc1nc(NN=Nc2ccccc2C(=O)N(C)C)sc1C(=O)NCc1ccccc1` [Example 31] showed a responders at 30 mg/kg in assay [1] of 60%.

In the case of `CCNC(=O)c1ccccc1N=NNc1nc(C)c(C(=O)NCc2ccccc2)s1` [Example 30], in assay [2], the responders at 30 mg/kg came to 60%.

Consider `NC(=O)c1ccccc1N=NNc1cccc2c1C(=O)c1ccccc1C2=O` [Example 23], for which the responders at 30 mg/kg in assay [1] was determined as 40%.

As to `Cc1cccc(NN=Nc2ccccc2C(N)=O)c1` [Example 14], the responders at 30 mg/kg in assay [1] was determined as 80%.

`Cc1ccc(NN=Nc2ccccc2C(=O)Nc2ccccc2)cc1` [Example 32] yielded a responders at 30 mg/kg in assay [1] of 60%.

For the compound `CCOc1ccc(NN=Nc2ccccc2C(N)=O)cc1` [Example 38], the responders at 30 mg/kg in assay [1] worked out at 40%.

In the case of `NC(=O)c1ccccc1N=NNc1cccc([N+](=O)[O-])c1` [Example 15], the responders at 30 mg/kg in assay [1] was 100%.

`Cc1c(Cl)cccc1NN=Nc1ccccc1C(N)=O` [Example 39] displayed a responders at 30 mg/kg in assay [1] of 40%.

In general, ED50 refers to the dose at which the effect has come halfway, by size or by number of responders. As for `NC(=O)c1ccccc1N=NNc1nccs1` [Example 2, 2-[3-(2-thiazolyl)-2(or 1)-triazeno]-benzamide], in assay [1], the responders at 30 mg/kg was found to be 80% and the ED50 was found to be 9.4 mg/kg.

Turning to `NC(=O)c1ccccc1N=NNc1ccccc1Cl` [Example 35], in assay [1], the responders at 30 mg/kg amounted to 80% and the ED50 amounted to 5.2 mg/kg.

`COc1ccc([N+](=O)[O-])cc1NN=Nc1ccccc1C(N)=O` [Example 33]: in assay [1], the responders at 30 mg/kg was found to be 100% and the ED50 was 14 mg/kg.

In turn, `COc1ccc(Cl)cc1NN=Nc1ccccc1C(N)=O` [Example 37] came in with a responders at 30 mg/kg in assay [1] of 60%.

As to `COc1ccc(NN=Nc2ccccc2C(N)=O)cn1` [Example 22], in assay [1], the responders at 30 mg/kg amounted to 100%.

`Cc1nc(NN=Nc2ccccc2C(N)=O)sc1C(=O)Nc1ccccc1` [Example 18]: the responders at 30 mg/kg in assay [1] was 60%.

`NC(=O)c1ccccc1N=NNc1ccc([N+](=O)[O-])cc1` [Example 12] came in with a responders at 30 mg/kg in assay [1] of 100%.

`NC(=O)c1ccccc1N=NNc1cccnc1Cl` [Example 21]: the responders at 30 mg/kg in assay [1] was determined as 40%.

`CCCCNC(=O)c1ccccc1N=NNc1ccc(C)c(Cl)c1` [Example 28]: the responders at 30 mg/kg in assay [1] was determined as 60%.

Regarding `Cc1ccc(NN=Nc2ccccc2C(N)=O)cc1C` [Example 16], the responders at 30 mg/kg in assay [1] stood at 60%.

`Cc1ccc(NN=Nc2ccccc2C(N)=O)cc1` [Example 8, 2-[3-p-tolyl-1(or 2)-triazeno]-benzamide] showed a responders at 30 mg/kg in assay [1] of 100%.

Consider `C#CCN(C)Cc1ccccc1` [pargyline], for which, in assay [3], the “excitation, salivation, jumping, and fighting with d1-DOPA” value is “excitation, salivation, jumping, and fighting”.

Compound `CCn1c2ccccc2c2cc(NN=Nc3ccccc3C(N)=O)ccc21` [Example 4, 2-[3-(9-ethyl-3-carbazolyl)-2(or 1)-triazeno]-benzamide] displayed a responders at 30 mg/kg in assay [1] of 100%.

`COc1ccc(NN=Nc2ccccc2C(N)=O)cc1` [Example 24] showed a responders at 30 mg/kg in assay [1] of 100%.

As to `Cc1ccccc1NN=Nc1ccccc1C(N)=O` [Example 13], the responders at 30 mg/kg in assay [1] stood at 100%.

On to `Cc1nc(NN=Nc2ccccc2C(N)=O)sc1C(=O)Nc1ccccc1Cl` [Example 17], for which the responders at 30 mg/kg in assay [1] came to 60%.

Regarding `COc1cc([N+](=O)[O-])c(C)cc1NN=Nc1ccccc1C(N)=O` [Example 34], in assay [1], the responders at 30 mg/kg is 100% and the ED50 came out at 14.5 mg/kg.

`NC(=O)c1ccccc1N=NNc1ccc(Cl)cc1` [Example 11]: in assay [1], the responders at 30 mg/kg amounted to 40%.

For the compound `NC(=O)c1ccccc1N=NNc1cccc(Cl)c1` [Example 36], the responders at 30 mg/kg in assay [1] is 40%.

`COc1ccccc1NN=Nc1ccccc1C(N)=O` [Example 25]: the responders at 30 mg/kg in assay [1] was 60%.

Regarding `Cc1cc(C)c(NC(=O)c2sc(NN=Nc3ccccc3C(N)=O)nc2C)c(C)c1` [Example 9], the responders at 30 mg/kg in assay [1] was determined as 60%.

`Cc1nc(NN=Nc2ccccc2C(N)=O)sc1C(=O)N1CCOCC1` [Example 5, 2-[3-(4-methyl-5-morpholinocarbonyl-2-thiazolyl)-2(or 1)-triazeno]-benzamide]: in assay [1], the responders at 30 mg/kg was 100% and the ED50 was determined as 6.7 mg/kg.

In turn, `CNC(=O)c1ccccc1N=NNc1ccc(C)cc1` [Example 26] displayed a responders at 30 mg/kg in assay [1] of 100%.

For the compound `COC(=O)c1ccccc1NN=Nc1ccccc1C(N)=O` [Example 10], in assay [1], the responders at 30 mg/kg was 80% and the ED50 is 6 mg/kg.
